#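 These data come from cells grown in 96-well plates and exposed to compound for 48 hours at five concentrations. TGI denotes the concentration required for complete inhibition of growth.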
# Legend:
# Experiment in all cases: NCI-60 cell line screen, 48 h
# [1] = test system: 786-0 renal
# [2] = test system: A498 renal
# [3] = test system: A549 NSCLC
# [4] = test system: ACHN renal
# [5] = test system: CAKI-1 renal
# [6] = test system: CCRF-CEM leukemia
# [7] = test system: COLO 205 colon
# [8] = test system: DLD-1 colon
# [9] = test system: DMS 114 small cell lung
# [10] = test system: DMS 273 small cell lung
# [11] = test system: EKVX NSCLC
# [12] = test system: HCC-2998 colon
# [13] = test system: HCT-15 colon
# [14] = test system: HL-60(TB) leukemia
# [15] = test system: HOP-18 NSCLC
# [16] = test system: HOP-62 NSCLC
# [17] = test system: HOP-92 NSCLC
# [18] = test system: HT29 colon
# [19] = test system: IGROV1 ovarian
# [20] = test system: K-562 leukemia
# [21] = test system: KM12 colon
# [22] = test system: KM20L2 colon
# [23] = test system: LOX IMVI melanoma
# [24] = test system: LXFL 529 NSCLC
# [25] = test system: M14 melanoma
# [26] = test system: M19-MEL melanoma
# [27] = test system: MALME-3M melanoma
# [28] = test system: MOLT-4 leukemia
# [29] = test system: NCI-H226 lung
# [30] = test system: NCI-H23 lung
# [31] = test system: NCI-H460 lung
# [32] = test system: NCI-H522 lung
# [33] = test system: OVCAR-3 ovarian
# [34] = test system: OVCAR-4 ovarian
# [35] = test system: OVCAR-5 ovarian
# [36] = test system: OVCAR-8 ovarian
# [37] = test system: RPMI-8226 leukemia
# [38] = test system: SF-295 CNS
# [39] = test system: SF-539 CNS
# [40] = test system: SK-MEL-2 melanoma
# [41] = test system: SK-MEL-28 melanoma
# [42] = test system: SK-MEL-5 melanoma
# [43] = test system: SK-OV-3 ovarian
# [44] = test system: SN12C renal
# [45] = test system: SNB-19 CNS
# [46] = test system: SNB-75 CNS
# [47] = test system: SNB-78 CNS
# [48] = test system: SW-620 colon
# [49] = test system: TK-10 renal
# [50] = test system: U251 CNS
# [51] = test system: UACC-257 melanoma
# [52] = test system: UACC-62 melanoma
# [53] = test system: UO-31 renal
# [54] = test system: XF 498 CNS
# [55] = test system: HCT-116 colon
# [56] = test system: RXF 393 renal
# [57] = test system: RXF-631 renal
# [58] = test system: SF-268 CNS
# [59] = test system: SR leukemia
smiles,measurement,setting,value
Cc1cc2c(cc1C)[n+](=O)c(C(=O)/C=C/c1ccc(Cl)cc1)c(C)n2[O-],TGI,[1],34.4 µM
same,TGI,[2],75.9 µM
same,TGI,[3],80.4 µM
same,TGI,[4],62 µM
same,TGI,[5],> 100 µM
same,TGI,[6],> 100 µM
same,TGI,[7],41.1 µM
same,TGI,[8],70.9 µM
same,TGI,[9],94.4 µM
same,TGI,[10],> 100 µM
same,TGI,[11],> 100 µM
same,TGI,[12],46.1 µM
same,TGI,[13],> 100 µM
same,TGI,[14],> 100 µM
same,TGI,[15],> 100 µM
same,TGI,[16],68.7 µM
same,TGI,[17],> 100 µM
same,TGI,[18],95.5 µM
same,TGI,[19],63.7 µM
same,TGI,[20],> 100 µM
same,TGI,[21],> 100 µM
same,TGI,[22],> 100 µM
same,TGI,[23],50.4 µM
same,TGI,[24],> 100 µM
same,TGI,[25],54.1 µM
same,TGI,[26],> 100 µM
same,TGI,[27],> 100 µM
same,TGI,[28],73.5 µM
same,TGI,[29],> 100 µM
same,TGI,[30],65.6 µM
same,TGI,[31],62.7 µM
same,TGI,[32],50.4 µM
same,TGI,[33],> 100 µM
same,TGI,[34],81.9 µM
same,TGI,[35],> 100 µM
same,TGI,[36],84.2 µM
same,TGI,[37],60.5 µM
same,TGI,[38],69.3 µM
same,TGI,[39],47.3 µM
same,TGI,[40],79.1 µM
same,TGI,[41],59.4 µM
same,TGI,[42],58.7 µM
same,TGI,[43],> 100 µM
same,TGI,[44],> 100 µM
same,TGI,[45],> 100 µM
same,TGI,[46],45.5 µM
same,TGI,[47],> 100 µM
same,TGI,[48],> 100 µM
same,TGI,[49],58.5 µM
same,TGI,[50],67.9 µM
same,TGI,[51],89.9 µM
same,TGI,[52],44.3 µM
same,TGI,[53],39.6 µM
same,TGI,[54],68.6 µM
Cn1cc(NC(=O)c2cc(NC(=O)Nc3cc(C(=O)Nc4cc(C(=O)NCCC(=N)N)n(C)c4)n(C)c3)cn2C)cc1C(=O)NCCC(=N)N,TGI,[1],38.1 µM
same,TGI,[2],63.2 µM
same,TGI,[3],83.4 µM
same,TGI,[4],57.9 µM
same,TGI,[5],92.1 µM
same,TGI,[6],77 µM
same,TGI,[7],92.9 µM
same,TGI,[8],> 100 µM
same,TGI,[9],> 100 µM
same,TGI,[10],29.6 µM
same,TGI,[11],> 100 µM
same,TGI,[12],> 100 µM
same,TGI,[55],> 100 µM
same,TGI,[13],> 100 µM
same,TGI,[14],> 100 µM
same,TGI,[15],> 100 µM
same,TGI,[16],> 100 µM
same,TGI,[17],> 100 µM
same,TGI,[18],> 100 µM
same,TGI,[19],68.7 µM
same,TGI,[20],> 100 µM
same,TGI,[21],36.8 µM
same,TGI,[22],> 100 µM
same,TGI,[23],70.1 µM
same,TGI,[24],> 100 µM
same,TGI,[25],57.2 µM
same,TGI,[26],83.1 µM
same,TGI,[27],> 100 µM
same,TGI,[28],> 100 µM
same,TGI,[30],> 100 µM
same,TGI,[31],55.3 µM
same,TGI,[33],> 100 µM
same,TGI,[34],> 100 µM
same,TGI,[35],> 100 µM
same,TGI,[36],50 µM
same,TGI,[56],42.9 µM
same,TGI,[57],56.9 µM
same,TGI,[58],> 100 µM
same,TGI,[38],86 µM
same,TGI,[39],35.2 µM
same,TGI,[41],> 100 µM
same,TGI,[42],53.1 µM
same,TGI,[43],> 100 µM
same,TGI,[44],> 100 µM
same,TGI,[45],> 100 µM
same,TGI,[46],67.2 µM
same,TGI,[47],82 µM
same,TGI,[59],> 100 µM
same,TGI,[48],> 100 µM
same,TGI,[49],54.7 µM
same,TGI,[50],69.9 µM
same,TGI,[51],45.5 µM
same,TGI,[52],53.2 µM
same,TGI,[53],> 100 µM
same,TGI,[54],45.8 µM

# — PubChem BioAssay (NCI)
